Assay results: patent publication US9682995B2, “Amino-substituted isothiazoles” (BAYER PHARMA AKTIENGESELLSCHAFT, priority 2013, dated 2017)

Experiments:
[1] = system: spindle assembly checkpoint; experiment: SAC-Formation - Nocodazole-Induced Assay; assay type: cell-based; details: Homo sapiens; HeLa cells, nocodazole 0.1 μg/ml, 24 h, phosphorylated histone H3 on serine 10
Procedure, shortened: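 HeLa cells were given nocodazole at 0.1 μg/ml final together with compounds (0.005–20 μM, 0.5% DMSO) for 24 h at 37° C. Mitotic cells were counted by phospho-histone H3 Ser10 immunostaining, with cell number from HOECHST 33342, by high-content imaging. The loss of mitotic cells was fitted with a four-parameter Hill equation.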

human kinase Mps-1 = human kinase Mps-1 (Homo sapiens (Human), UniProt P33981); experiment: Mps-1 kinase assay (TR-FRET); assay type: biochemical; details: 10 μM ATP; read-out: Mps1 avg (IC50 [mol/l])
Procedure, shortened: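 GST-tagged full-length human Mps-1 (~0.5 nM) preincubated 15 min with compound, then reacted 60 min at 22 °C with 10 μM ATP and 1 μM biotinylated peptide in Hepes pH 7.7 buffer. Phosphoproduct detected by TR-FRET (Eu anti-phospho-Ser/Thr, SA-XLent); 665/620 ratio normalised to no-inhibitor and no-enzyme controls.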

Sequence of human kinase Mps-1 (P33981 whole entry): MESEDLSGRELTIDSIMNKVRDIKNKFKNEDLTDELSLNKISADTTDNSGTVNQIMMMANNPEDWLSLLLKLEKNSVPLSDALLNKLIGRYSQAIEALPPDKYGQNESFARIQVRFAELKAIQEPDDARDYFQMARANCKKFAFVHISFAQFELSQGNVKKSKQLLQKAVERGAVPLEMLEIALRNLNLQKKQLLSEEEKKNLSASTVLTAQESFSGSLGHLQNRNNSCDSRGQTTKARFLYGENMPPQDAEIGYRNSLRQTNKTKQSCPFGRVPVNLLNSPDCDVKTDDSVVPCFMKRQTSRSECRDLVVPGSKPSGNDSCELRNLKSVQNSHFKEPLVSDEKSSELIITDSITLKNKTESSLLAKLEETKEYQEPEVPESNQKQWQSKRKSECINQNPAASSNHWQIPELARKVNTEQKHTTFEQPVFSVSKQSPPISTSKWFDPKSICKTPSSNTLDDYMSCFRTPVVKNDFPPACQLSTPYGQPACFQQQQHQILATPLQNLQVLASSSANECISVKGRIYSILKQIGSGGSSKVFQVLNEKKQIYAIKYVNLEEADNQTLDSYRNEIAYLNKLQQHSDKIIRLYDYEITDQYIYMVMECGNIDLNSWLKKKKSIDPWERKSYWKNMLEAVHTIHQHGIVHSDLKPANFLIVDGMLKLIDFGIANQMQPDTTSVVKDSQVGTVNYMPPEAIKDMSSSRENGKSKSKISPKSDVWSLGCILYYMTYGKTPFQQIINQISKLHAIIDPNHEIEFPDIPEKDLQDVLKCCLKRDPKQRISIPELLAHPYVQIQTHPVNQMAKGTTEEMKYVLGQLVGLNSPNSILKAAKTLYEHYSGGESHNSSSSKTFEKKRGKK

Row | Compound | IC50 [1] | IC50 (human kinase Mps-1)
1 | COC(=O)c1cncc(Nc2snc(C)c2C(=O)Nc2ccc(OC)nc2)n1 [Example 101, Methyl 6-({4-[(6-methoxypyridin-3-yl)carbamoyl]-3-methyl-1,2-thiazol-5-yl}amino)pyrazine-2-carboxylate] | 1.8 µM | > 20 µM
2 | Cc1nsc(Nc2nc3c(C(F)(F)F)cccc3s2)c1C(=O)Nc1ccc(F)c(F)c1 [Example 51, N-(3,4-Difluorophenyl)-3-methyl-5-{[4-(trifluoromethyl)-1,3-benzothiazol-2-yl]-amino}-1,2-thiazole-4-carboxamide] | 0.039 µM | > 20 µM
3 | COc1ccc(NC(=O)c2c(C)nsc2Nc2cc(C#N)ccn2)cn1 [Example 25, 5-[(4-Cyanopyridin-2-yl)amino]-N-(6-methoxypyridin-3-yl)-3-methyl-1,2-thiazole-4-carboxamide] | 2.2 µM | > 20 µM
4 | CCc1ccccc1NC(=O)c1c(C)nsc1Nc1cnc2cccc(C)c2n1 [Example 33, N-(2-Ethylphenyl)-3-methyl-5-[(8-methylquinoxalin-2-yl)amino]-1,2-thiazole-4-carboxamide] | 0.2 µM | > 20 µM
5 | CCOC(=O)c1cnn2ccc(Nc3snc(C)c3C(=O)Nc3ccc(F)c(F)c3)nc12 [Example 55, Ethyl 5-({4-[(3,4-difluorophenyl)carbamoyl]-3-methyl-1,2-thiazol-5-yl}amino)-pyrazolo[1,5-a]pyrimidine-3-carboxylate] | 0.22 µM | > 20 µM
6 | COc1ccc(Oc2ccc(NC(=O)c3c(C)nsc3Nc3cnc4ccccc4n3)cn2)cc1 [Example 116, N-[6-(4-Methoxyphenoxy)pyridin-3-yl]-3-methyl-5-(quinoxaline-2-ylamino)-1,2-thiazole-4-carboxamide] | 1.6 µM | 3.6 µM
7 | Cc1nsc(Nc2ccc(C#N)cn2)c1C(=O)Nc1ccc(Cl)c(F)c1 [Example 52, N-(4-Chloro-3-fluorophenyl)-5-[(5-cyanopyridin-2-yl)amino]-3-methyl-1,2-thiazole-4-carboxamide] | 0.034 µM | > 20 µM
8 | Cc1nsc(Nc2cnc3ccccc3n2)c1C(=O)Nc1ccc(F)c(F)c1 [Example 50, N-(3,4-Difluorophenyl)-3-methyl-5-(quinoxalin-2-ylamino)-1,2-thiazole-4-carboxamide] | 0.056 µM | > 20 µM
9 | COc1ccc(NC(=O)c2c(C)nsc2Nc2cnc3cc(Cl)ccc3n2)cn1 [Example 23, 5-[(6-Chloroquinoxalin-2-yl)amino]-N-(6-methoxypyridin-3-yl)-3-methyl-1,2-thiazole-4-carboxamide] | 0.28 µM | > 20 µM
10 | CCOC(=O)c1sc(Nc2snc(C)c2C(=O)Nc2ccc(OC)nc2)nc1C [Example 30, Ethyl 2-({4-[(6-methoxypyridin-3-yl)carbamoyl]-3-methyl-1,2-thiazol-5-yl}amino)-4-methyl-1,3-thiazole-5-carboxylate] | 0.092 µM | > 20 µM
11 | Cc1nsc(Nc2nc3c(C(F)(F)F)ccnc3s2)c1C(=O)Nc1ccc(Cl)c(F)c1 [Example 103, N-(4-Chloro-3-fluorophenyl)-3-methyl-5-{[7-(trifluoromethyl)[1,3]thiazolo[5,4-b]pyridin-2-yl]amino}-1,2-thiazole-4-carboxamide] | 0.24 µM | > 20 µM
12 | COc1ccc(NC(=O)c2c(C)nsc2Nc2cnc3c(F)c(F)ccc3n2)cn1 [Example 43, 5-[(5,6-Difluoroquinoxalin-2-yl)amino]-N-(6-methoxypyridin-3-yl)-3-methyl-1,2-thiazole-4-carboxamide] | 0.034 µM | > 20 µM
13 | CCc1ccccc1NC(=O)c1c(C)nsc1Nc1ncccc1C#N [Example 8, 5-[(3-Cyanopyridin-2-yl)amino]-N-(2-ethylphenyl)-3-methyl-1,2-thiazole-4-carboxamide] | 4.1 µM | > 20 µM
14 | CCc1ccccc1NC(=O)c1c(C)nsc1Nc1nc2ccccc2o1 [Example 11, 5-(1,3-Benzoxazol-2-ylamino)-N-(2-ethylphenyl)-3-methyl-1,2-thiazole-4-carboxamide] | 1.8 µM | > 20 µM
15 | Cc1nsc(Nc2cnc3ccccc3n2)c1C(=O)Nc1ccc(OC2CCCCC2)nc1 [Example 115, N-[6-(Cyclohexyloxy)pyridin-3-yl]-3-methyl-5-(quinoxalin-2-ylamino)-1,2-thiazole-4-carboxamide] | 0.09 µM | > 20 µM
16 | COc1ccc(NC(=O)c2c(C)nsc2Nc2cnc3cc(C(F)(F)F)ccc3n2)cn1 [Example 45, N-(6-Methoxypyridin-3-yl)-3-methyl-5-{[6-(trifluoromethyl)quinoxalin-2-yl]amino}-1,2-thiazole-4-carboxamide] | 0.054 µM | > 20 µM
